Values belong to the compound of their own block, whether it stands above or below them.
What was measured:
[1] = target: T1, GLRA1 (Homo sapiens, UniProt P23415); experiment: TEVC of glycine receptor GLRA1 expressed in oocytes; assay type: cell-based; settings: for activation of GLRA1 by compound alone: 1 mM
T1 sequence (P23415 29-457): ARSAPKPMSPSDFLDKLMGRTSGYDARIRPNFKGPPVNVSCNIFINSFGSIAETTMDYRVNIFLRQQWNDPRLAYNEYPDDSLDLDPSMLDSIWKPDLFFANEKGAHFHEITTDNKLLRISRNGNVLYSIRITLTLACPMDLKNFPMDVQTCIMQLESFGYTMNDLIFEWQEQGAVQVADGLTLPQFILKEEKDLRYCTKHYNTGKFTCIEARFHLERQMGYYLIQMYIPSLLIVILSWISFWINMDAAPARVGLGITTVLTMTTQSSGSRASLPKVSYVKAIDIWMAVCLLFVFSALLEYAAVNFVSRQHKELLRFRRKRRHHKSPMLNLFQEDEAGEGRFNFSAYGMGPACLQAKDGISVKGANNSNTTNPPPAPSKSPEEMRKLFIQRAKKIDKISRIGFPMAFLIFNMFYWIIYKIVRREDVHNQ
From the text: We generated cRNA transcripts encoding human KCNQ1, KCNQ2, KCNQ3, KCNQ4, KCNQ5 or GLRA1 (NM_001146040) (GenScript, Piscataway, N.J., USA) by in vitro transcription using the T7 polymerase mMessage mMachine kit (Thermo Fisher Scientific), after vector linearization, from cDNA sub-cloned into plasmids incorporating Xenopus laevis β-globin 5′ and 3′ UTRs flanking the coding region to enhance translation and cRNA stability. We quantified cRNA by spectrophotometry. We generated mutant KCNQ2 and KCNQ3 cDNAs by site-directed mutagenesis using a QuikChange kit (Stratagene, San Diego, Calif.) and prepared the corresponding cRNAs as above. We injected defolliculated stage V and VI Xenopus laevis oocytes (Ecocyte Bioscience, Austin, Tex. and Xenoocyte, Dexter, Mich.) with KCNQ channel a subunit (5-20 ng) or GLRA1 (20 ng) cRNAs. We incubated the oocytes at 16° C. in Barth's saline solution (Ecocyte) containing penicillin and streptomycin, with daily washing, for 2-5 days prior to two-electrode voltage-clamp (TEVC) recording.
We performed TEVC at room temperature using an OC-725C amplifier (Warner Instruments, Hamden, Conn.) and pClamp10 software (Molecular Devices, Sunnyvale, Calif.) 3-5 days after cRNA injection as described in the section above. For recording, oocytes were placed in a small-volume oocyte bath (Warner) and viewed them with a dissection microscope. Chemicals were sourced from Sigma, Matrix Scientific and Santa Cruz. […] All stock solutions were diluted in bath solution on the day of experiments. KCNQ2/3 channel activation was screened for using either 30 μM or 100 μM concentrations of each of the six compounds, then dose responses were conducted as appropriate. Bath solution was (in mM): 96 NaCl, 4 KCl, 1 MgCl2, 1 CaCl2, 10 HEPES (pH 7.6). Compounds were introduced into the oocyte recording bath by gravity perfusion at a constant flow of 1 ml per minute for 3 minutes prior to recording. Pipettes were of 1-2 MΩ resistance when filled with 3 M KCl. Currents were recorded in response to voltage pulses between −120 or −80 mV and +40 mV at 20 mV intervals from a holding potential of −80 mV, to yield current-voltage relationships, current magnitude, and for quantifying activation rate. We analyzed data using Clampfit (Molecular Devices) and Graphpad Prism software (GraphPad, San Diego, Calif., USA); values are stated as mean±SEM. We plotted raw or normalized tail currents versus prepulse voltage and fitted with a single Boltzmann function: […]

[2] = test system: pentylene tetrazole-induced seizures; experiment: PTZ chemoconvulsant assay; assay type: in vivo, mouse; settings: for clonic seizure incidence: alone
From the text: We compared anticonvulsant activities of test compounds in male C57BL/6 mice (Charles River) aged 2-3 months. Mice were housed and used according to the recommendations in the Guide for the Care and Use of Laboratory Animals of the National Institutes of Health (NIH Publication, 8th edition, 2011). The study protocol was approved by the Institutional Animal Care and Use Committee of University of California, Irvine, which confirmed that all relevant ethical regulations were adhered to. Chemicals were sourced from Sigma (St. Louis, Mo., USA). A pentylene tetrazole (PTZ) chemoconvulsant assay was used-. […] Following the PTZ injection, mice were caged individually and an observer (GWA) blinded to the drug used recorded, over 20 min, clonic and tonic seizure incidence, and seizure-related mortality.
We quantified the anticonvulsant activities of (E)-2-dodecenal and tridecanal in male C57BL/6 mice (Charles River, Wilmington, Mass.) aged 2-3 months. The mice were housed and used according to the recommendations in the Guide for the Care and Use of Laboratory Animals of the National Institutes of Health (NIH Publication, 8th edition, 2011). The study protocol was approved by the Institutional Animal Care and Use Committee of University of California, Irvine. The chemicals were sourced from Sigma (St. Louis, Mo., USA). We used a pentylene tetrazole (PTZ) chemoconvulsant assay as we previously described (30). We injected the mice intraperitoneally with (E)-2-dodecenal (2 or 20 mgkg^−1) (with or without 2.5 mgkg^−1 XE991) or tridecanal (20 mgkg^−1) solubilized in PBS, or vehicle control (PBS), and then 30 minutes later we injected mice intraperitoneally with 80 mgkg-PTZ. Following the PTZ injection, the mice were caged individually and an observer (GWA) blinded to the experimental condition timed the latency to first seizure.
We compared anticonvulsant activities of 3FMSG in male C57BL/6 mice (Charles River) aged 2-3 months. Mice were housed and used according to the recommendations in the Guide for the Care and Use of Laboratory Animals of the National Institutes of Health (NIH Publication, 8th edition, 2011). The study protocol was approved by the Institutional Animal Care and Use Committee of University of California, Irvine, which confirmed that all relevant ethical regulations were adhered to. Chemicals were sourced from Sigma (St. Louis, Mo., USA). We used a pentylene tetrazole (PTZ) chemoconvulsant assay as we previously described^27. Mice were injected intraperitoneally with 3FMSG (5 mg kg^−1) or vehicle control (PBS) and then 30 minutes later injected intraperitoneally with 80 mg kg^−1 PTZ. Following the PTZ injection, mice were caged individually and an observer (GWA) blinded to the drug used recorded seizure activity over 20 minutes.

SMILES: CS(=O)(=O)N(CC(=O)O)c1cccc(F)c1 [3FMSG]
inhibition of glycine-activated GLRA1 ([1]; 100 μM, 1 mM glycine): ~40%
inhibition of glycine-activated GLRA1 (in words) ([1]; 100 μM, 1 mM glycine): partially inhibited
activation of GLRA1 by compound alone [1]: lack of effects
incidence of PTZ-induced tonic seizures ([2]; 5 mg/kg i.p.): reduced by threefold

SMILES: CCCCCCCCC/C=C/C=O [(E)-2-dodecenal]
latency to first PTZ-induced seizure ([2]; 2 mgkg−1 i.p.): threefold
latency to first PTZ-induced seizure ([2]; 20 mgkg−1 i.p.): > threefold

activation of GLRA1 by compound alone [1]: robust activation
SMILES: NCC(=O)O [glycine, reference compound]

SMILES: CC(=O)c1c(O)c(C)c(O)c(Cc2c(O)c3c(c(C(=O)/C=C/c4ccccc4)c2O)OC(C)(C)C=C3)c1O [MTX, mallotoxin]
clonic seizure incidence ([2]; 10 mg/kg i.p.): neither compound reduced clonic seizures alone
clonic seizure incidence ([2]; 20 mg/kg i.p.): halved
suppression of PTZ-induced tonic seizures ([2]; individually): ineffective
